Laboratory results taken from patent US11307204B2, “5-ALA for detection of brain tumors” (PIOMA, INC., priority 2012, dated 2022).

Test system: U87 cells
Assay: Flow cytometry detection of PPIX in U87 cells exposed to 5-ALA
Format: cell-based
Conditions: serum-free, 5-ALA 250 μg/ml, excitation 406 nm, filter 610/20
Description: U87 cells representative of GBM tumors grown in T-75 flasks, in the absence of serum, were exposed to 5-aminolevulinic acid ([…]; 250 μg/ml) for 4 or 24 hours. Following exposure, cells were subjected to fluorescent excitation in a LSRII flow cytometer with an excitation at 406 nm violet wave length. Filter specifications were set at either 450/50, or set at 610/20 for the detection of protoporphyrin IX (PPIX).

NCC(=O)CCC(=O)O [5-ALA, 5-aminolevulinic acid]
mean fluorescence index (MFI), PPIX (4 hours): MFI increased | mean fluorescence index (MFI), PPIX (24 hours): MFI increased
